Structures can show the parent of a compound that is named as a salt.
Key:
Format in all cases: physicochemical
[1] = Solubility in simulated intestinal fluids at controlled ambient room temperature; conditions: for Solubility in FaSSIF and FeSSIF (in words): mesylate compared to the bis-HCl salt
[2] = Water vapor sorption (DVS) at 25° C.
Experimental: Water vapor sorption experiments were performed using a Surface Measurement System DVS Advantage at 25° C. The Bis-HCl salt of Compound A reversibly absorbed approximately 7% weight per weight of water between 0% and 90% relative humidity at 25° C. […] Upon desorption the conversions were reversible. The Form 1 crystalline mesylate salt of Compound A reversibly absorbed approximately 1.6% weight per weight of water between 0% and 90% relative humidity at 25° C.

[3] = Thermal behaviour during heating (DSC)
Experimental: Differential Scanning calorimetry (DSC) data were acquired on a TA Instruments Q20 DSC. The method parameters were: Heat Program: 30° C. to 300° C. using a 10° C. per minute heating rate, under a nitrogen gas flow.

[4] = Fasted State Simulated Intestinal Fluid (FaSSif) pH 6.5, controlled ambient room temperature
[5] = Fed State Simulated Intestinal Fluid (FeSSif) pH 6.5, controlled ambient room temperature

| Solubility in FaSSIF and FeSSIF (in words) ([1]; listed as parent free base of Compound A) | Solubility of Specified Version [1, 4] | Solubility of Specified Version [1, 5] | Solid form change upon moisture sorption ([2]; ambient humidity conditions) | Water reversibly absorbed ([2]; between 0% and 90% relative humidity at 25° C.) | Hygroscopicity (in words) ([2]; compared to the bis-HCl salt, ambient humidity conditions) | Solubility in FaSSIF and FeSSIF (in words) ([1]; listed as Form 1 of the mesylate salt of Compound A) | Thermal loss of counter-ion during heating [3] | Structure (SMILES) |
| --- | --- | --- | --- | --- | --- | --- | --- | --- |
| poor solubility | Less than 0.001 mg/mL | Less than 0.001 mg/mL | – | – | – | – | – | C=C(C)[C@@H]1CC[C@]2(NCCN3CCS(=O)(=O)CC3)CC[C@]3(C)[C@H](CC[C@@H]4[C@@]5(C)CC=C(C6=CC[C@@](CF)(C(=O)O)CC6)C(C)(C)[C@@H]5CC[C@]43C)[C@@H]12 [Parent Compound A, (1R)-4-[(1R,3aS,5aR,5bR,7aR,11aS,11bR,13aR,13bR)-3a-{[2-(1,1-dioxido-4-thiomorpholinyl)ethyl]amino}-5a,5b,8,8,11a-pentamethyl-1-(1-propen-2-yl)-2,3,3a,4,5,5a,5b,6,7,7a,8,11,11a,11b,12,13,13a,13b-octadecahydro-1H-cyclopenta[a]chrysen-9-yl]-1-(fluoromethyl)-3-cyclohexene-1-carboxylic acid] |
| – | 100 µg/mL | 600 µg/mL | no significant form change | approximately 1.6 % weight per weight | lower hygroscopicity | greater solubility | does not show this behavior | C=C(C)[C@@H]1CC[C@]2(NCCN3CCS(=O)(=O)CC3)CC[C@]3(C)[C@H](CC[C@@H]4[C@@]5(C)CC=C(C6=CC[C@@](CF)(C(=O)O)CC6)C(C)(C)[C@@H]5CC[C@]43C)[C@@H]12 [Form 1 of Mesylate salt of Compound A] |
